Test results taken from PubChem BioAssay (NCI).
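96-well plates; 48 h exposure; 5 concentrations. Endpoints by linear interpolation between flanking doses. Not reached: highest tested concentration assigned. At the GI50, growth is halved. TGI is the concentration that stops growth completely.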

What was measured:
Test in all cases: growth of human tumour cells (NCI), 48 h
COLO 205 colon = system: COLO 205 colon
MALME-3M melanoma = system: MALME-3M melanoma
NCI-H23 lung = system: NCI-H23 lung
OVCAR-3 ovarian = system: OVCAR-3 ovarian
SF-295 CNS = system: SF-295 CNS
SN12C renal = system: SN12C renal
BT-549 breast = system: BT-549 breast
DU-145 prostate = system: DU-145 prostate
NCI/ADR-RES ovarian = system: NCI/ADR-RES ovarian
MCF7 breast = system: MCF7 breast

Row | SMILES | TGI (COLO 205 colon) | TGI (MALME-3M melanoma) | TGI (NCI-H23 lung) | TGI (OVCAR-3 ovarian) | TGI (SF-295 CNS) | TGI (SN12C renal) | GI50 (BT-549 breast) | TGI (BT-549 breast) | GI50 (DU-145 prostate) | TGI (DU-145 prostate) | GI50 (MALME-3M melanoma) | GI50 (NCI-H23 lung) | GI50 (NCI/ADR-RES ovarian) | TGI (NCI/ADR-RES ovarian) | GI50 (OVCAR-3 ovarian) | GI50 (SF-295 CNS) | GI50 (SN12C renal) | GI50 (COLO 205 colon) | GI50 (MCF7 breast) | TGI (MCF7 breast)
1 | OCC1OC(c2nc(C3=NCCCN3)cs2)C(O)C1O (stereo not drawn) | > 100 µM | > 100 µM | > 100 µM | > 10 µM | > 10 µM | > 100 µM |  |  |  |  |  |  |  |  |  |  |  |  |  | 
2 | Cn1cc(-c2csc(-c3c[nH]c4ccc(F)cc34)n2)c2cnccc21 |  | 3.46 µM | 3.25 µM | 3.32 µM | 3.25 µM | 3.22 µM | 1.63 µM | 3.06 µM | 1.8 µM | 3.28 µM | 1.94 µM | 1.62 µM | 1.98 µM | 3.98 µM | 1.83 µM | 1.74 µM | 1.72 µM |  |  | 
3 | O=C(CCc1n[nH]c(=S)o1)Nc1ccccc1C(F)(F)F | > 100 µM | > 100 µM | > 100 µM | > 100 µM | > 100 µM | > 100 µM |  |  |  |  |  |  |  |  |  |  |  |  |  | 
4 | COc1ccc(C(=O)/C=C/c2cc(-c3cc(OC)c(OC)c(OC)c3)n[nH]2)cc1OC | 3.21 µM | 3.68 µM | 5.24 µM | 3.17 µM |  | 3.13 µM | 1.44 µM | 2.9 µM | 0.55 µM | 1.84 µM | 1.99 µM | 2.15 µM | 3.13 µM | 15.7 µM | 1.68 µM |  | 1.54 µM | 1.74 µM | 0.482 µM | 1.95 µM
5 | CCN1CCC(O)(c2ccc(OC)cc2)C(C(=O)c2ccc(OC)cc2)C1 (stereo not drawn) | 55.1 µM |  | 35.3 µM | 31.6 µM | > 100 µM | 42.5 µM |  |  |  |  |  |  |  |  |  |  |  |  |  | 
6 | CCOC(=O)Nc1ccc(C)c(NC(=O)OCC)c1 | > 100 µM | > 100 µM | > 100 µM | > 100 µM | > 100 µM | > 100 µM |  |  |  | > 100 µM |  |  |  | > 100 µM |  |  |  |  |  | > 100 µM
7 | COC1(OC)C(N(C)C)=C(Cl)C(=O)/C1=C/C=O | > 100 µM | > 100 µM | > 100 µM | > 100 µM | > 100 µM | > 100 µM |  |  |  |  |  |  |  |  |  |  |  |  |  | 
8 | COc1cc(Cn2c(-c3ccccc3)c(Cl)c3c2-c2oncc2CC3)cc(OC)c1 | 30.6 µM | 21.1 µM | > 100 µM | 22.9 µM | > 100 µM | 38.4 µM |  |  | 26.6 µM | > 100 µM | 4.16 µM | 6.15 µM | 2.58 µM | 8.96 µM | 4.63 µM | 3.05 µM | 12.7 µM | 8.03 µM | 3.81 µM | > 100 µM
9 | N#C/C1=C(\N)CCSSSC1 | > 100 µM | > 100 µM | > 100 µM | > 100 µM | 50.8 µM | > 100 µM |  |  |  |  |  |  |  |  |  |  |  |  |  | 
10 | COc1cc(-c2cc(-c3cc4c([nH]c5ccccc54)c(-c4cc(OC)c(OC)c(OC)c4)n3)cc(-c3ccccc3)n2)cc(OC)c1OC | 21.9 µM | 70.9 µM | > 100 µM | 17.3 µM |  | > 100 µM | 6.74 µM | 91.2 µM | 11 µM | > 100 µM | 6.3 µM | 5.52 µM | 3.12 µM | 94.8 µM | 3.9 µM |  | 4.08 µM | 4.11 µM | 3.56 µM | 20.8 µM
